System: not listed separately
Experiment: Displacement of [3H]BTX-B from neuronal voltage-gated sodium channel in rat cerebral cortex synaptoneurosomes after 60 mins by scintillation counting
Format: tissue-based
Conditions: not given

`CC(C)(C)c1ccc(C(=O)CCCN2CCN(C(c3ccccc3)c3ccccc3)CC2)cc1` and `Cc1ccc(C(=O)CCCN2CCN(C(c3ccccc3)c3ccccc3)CC2)cc1C` are within 1.5-fold of each other in IC50: 128 nM for the first, 156 nM for the second.

Compared with `Fc1ccc(C(CCCNCCc2ccccc2)c2ccc(F)cc2)cc1`, `Fc1ccc(C(CCCNCCCc2ccccc2)c2ccc(F)cc2)cc1` is 5.4-fold lower in IC50: 1230 nM for the first, 229 nM for the second. The second is the more potent here.

Compared with `c1ccc(C(CCCCCCNC(c2ccccc2)c2ccccc2)c2ccccc2)cc1`, `c1ccc(C(CCCCCNC(c2ccccc2)c2ccccc2)c2ccccc2)cc1` is 1.6-fold lower in IC50: 560 nM for the first, 345 nM for the second. The second is the more potent here.

Compared with `c1ccc(C(CCCCNC(c2ccccc2)c2ccccc2)c2ccccc2)cc1`, `c1ccc(C(CCCNC(c2ccccc2)c2ccccc2)c2ccccc2)cc1` is 2.4-fold higher in IC50: 562 nM for the first, 1330 nM for the second. The first is the more potent here.

`O=C(NCCN1CCN(C(c2ccccc2)c2ccccc2)CC1)c1ccccc1` and `c1ccc(CCN2CCN(C(c3ccccc3)c3ccccc3)CC2)cc1` are within 1.5-fold of each other in IC50: 283 nM for the first, 257 nM for the second.

First: c1ccc(CCCN2CCN(C(c3ccccc3)c3ccccc3)CC2)cc1
Second: Fc1ccc(C(CCCN2CCN(C(c3ccccc3)c3ccccc3)CC2)c2ccc(F)cc2)cc1
The IC50 of the first is 1.6-fold higher: 192 nM for the first, 119 nM for the second. The second is the more potent here.

`c1ccc(CCCNCCc2ccccc2)cc1` and `c1ccc(CCCNCCCc2ccccc2)cc1` are within 1.5-fold of each other in IC50: 340 nM for the first, 252 nM for the second.

Compared with `c1ccc(C(CCNC(c2ccccc2)c2ccccc2)c2ccccc2)cc1`, `c1ccc(C(CNC(c2ccccc2)c2ccccc2)c2ccccc2)cc1` is 4.2-fold higher in IC50: 760 nM for the first, 3160 nM for the second. The first is the more potent here.

Species: Rattus norvegicus
Conditions: Cerebral cortex

First: CCCCCC(O)(C(=O)NCCC(c1ccccc1)c1ccccc1)c1ccccc1 (stereo not drawn)
Second: CCC(O)(C(=O)NCCC(c1ccccc1)c1ccccc1)c1ccccc1 (stereo not drawn)
The logIC50 of the first is lower: 0.4 for the first, 0.91 for the second.

Compared with `CC(Cc1ccccc1)NCCC(c1ccccc1)c1ccccc1` (stereo not drawn), `CC(O)(C(=O)N1CCN(C(c2ccccc2)c2ccccc2)CC1)c1ccccc1` (stereo not drawn) is higher in logIC50: -0.52 for the first, 0.8 for the second.

Compared with `CC1CCCCN1CCCOC(=O)c1ccccc1` (stereo not drawn), `CCCNC(C)(C)COC(=O)c1ccccc1` is lower in logIC50: 1.11 for the first, 0.88 for the second.

Compared with `C[N+](C)(CC(=O)Nc1ccccc1)CC(=O)Nc1ccccc1`, `CCC(O)(C(=O)NCCc1ccccc1)c1ccccc1` (stereo not drawn) is higher in logIC50: 0.59 for the first, 1.48 for the second.

Compared with `CCC1(c2ccccc2)NC(=O)N(S(=O)(=O)c2ccc(C)cc2)C1=O` (stereo not drawn), `CCCC1(c2ccccc2)NC(=O)N(S(C)(=O)=O)C1=O` (stereo not drawn) is higher in logIC50: 1.7 for the first, 2.7 for the second.

First: CCCCc1cc2ccccc2c(OCCN(C)C)n1
Second: CCCCOc1cc(C(=O)NCCN(CC)CC)c2ccccc2n1
The logIC50 of the first is lower: 0.53 for the first, 0.78 for the second.

Going from `CCCCCCC1(c2ccccc2)NC(=O)NC1=O` (stereo not drawn) to `CCCCCCCC1(c2ccccc2)NC(=O)NC1=O` (stereo not drawn), the logIC50 falls from 1.11 to 0.7.

`CCCCCC(O)(C(=O)NCCc1ccccc1)c1ccccc1` (stereo not drawn) and `CCCCCC(O)(C(=O)NCCCc1ccccc1)c1ccccc1` (stereo not drawn) are within 0.2 log units of each other in logIC50: 0.7 for the first, 0.72 for the second.

`CN(C)CCC(c1ccccc1)c1ccccn1` (stereo not drawn) and `CCC(O)(C(=O)NCCCc1ccccc1)c1ccccc1` (stereo not drawn) are within 0.2 log units of each other in logIC50: 1.52 for the first, 1.54 for the second.

Going from `CCCCCC(O)(C(=O)N1CCN(C(c2ccccc2)c2ccccc2)CC1)c1ccccc1` (stereo not drawn) to `CCCCCC1(c2ccccc2)NC(=O)N(CN2CCN(C(c3ccccc3)c3ccccc3)CC2)C1=O` (stereo not drawn), the logIC50 falls from 0.68 to 0.11.

Compared with `CCCCCC1(c2ccccc2)NC(=O)N(S(C)(=O)=O)C1=O` (stereo not drawn), `CCCCCCCC1(c2ccccc2)NC(=O)N(S(C)(=O)=O)C1=O` (stereo not drawn) is lower in logIC50: 2.05 for the first, 1.11 for the second.

`CCCC1(c2ccccc2)OC(=O)NC1=O` (stereo not drawn) and `CCCCCC1(c2ccccc2)OC(=O)NC1=O` (stereo not drawn) are within 0.2 log units of each other in logIC50: 2.65 for the first, 2.5 for the second.

Compared with `Cc1ccc2c(S(=O)(=O)NCCCCCCN)cccc2c1`, `NCCCCCCNS(=O)(=O)c1cccc2ccccc12` is higher in logIC50: 1.08 for the first, 1.34 for the second.

First: CCN(CC)CCOC(=O)c1ccc(N)cc1
Second: CCOC(=O)c1ccc(N)cc1
The logIC50 of the first is lower: 2.04 for the first, 2.86 for the second.

Going from `COc1ccc(CCN(C)CCCC(C#N)(c2cc(OC)c(OC)c(OC)c2)C(C)C)cc1OC` (stereo not drawn) to `COc1cc(C(=O)OCCCN2CCCN(CCCOC(=O)c3cc(OC)c(OC)c(OC)c3)CC2)cc(OC)c1OC`, the logIC50 falls from 0.56 to -0.22.

`OCCN1CCN(CCCN2c3ccccc3Sc3ccc(C(F)(F)F)cc32)CC1` and `OC(CCCN1CCCCC1)(c1ccccc1)c1ccccc1` are within 0.2 log units of each other in logIC50: 0.57 for the first, 0.53 for the second.

Compared with `CC12C(=O)NC(=O)N1CCc1ccccc12` (stereo not drawn), `O=C1NC(=O)C2(CCc3ccccc32)N1` (stereo not drawn) is higher in logIC50: 2.86 for the first, 3.32 for the second.

Going from `CCCOc1cc(N)ccc1C(=O)OCCN(CC)CC` to `CCCCOc1cc(C(=O)OCCN(CC)CC)ccc1N`, the logIC50 falls from 1.38 to 0.46.

First: CN(C)C(=O)C(CCN1CCC(O)(c2ccc(Cl)cc2)CC1)(c1ccccc1)c1ccccc1
Second: CN(C)C(=O)C(CCN1CCC(O)(c2ccc(Cl)c(C(F)(F)F)c2)CC1)(c1ccccc1)c1ccccc1
The logIC50 of the first is lower: -0.56 for the first, 0.55 for the second.

Compared with `CCCCCCCCCC1(c2ccccc2)NC(=O)N(S(C)(=O)=O)C1=O` (stereo not drawn), `CCCCCCCCCC1(c2ccccc2)NC(=O)NC1=O` (stereo not drawn) is lower in logIC50: 1.1 for the first, 0.7 for the second.

Going from `CCN(CC)CCOC(=O)C1(C2CCCCC2)CCCCC1` to `CCN(CC)CC(=O)Nc1c(C)cccc1C`, the logIC50 rises from 0.45 to 1.68.

Going from `CCCCN(CCCC)CCCOC(=O)c1ccc(N)cc1` to `CC(C)CNCCOC(=O)c1ccc(N)cc1`, the logIC50 rises from 0.43 to 1.74.

First: Clc1ccc(C(c2ccc(Cl)cc2)[n+]2ccn(CC(OCc3ccc(Cl)cc3Cl)c3ccc(Cl)cc3Cl)c2)cc1 (stereo not drawn)
Second: O=C(CCCN1CCC(O)(c2ccc(Cl)cc2)CC1)c1ccc(F)cc1
The logIC50 of the first is higher: 0.85 for the first, 0.08 for the second.

`Cc1cccc(C)c1NC(=O)C(C)N` (stereo not drawn) and `Cc1cccc(C)c1NC(=O)C1CCCCN1C` (stereo not drawn) are within 0.2 log units of each other in logIC50: 2.3 for the first, 2.28 for the second.

Compared with `CCCCOc1ccc(OCCCN2CCOCC2)cc1`, `CCOc1ccc(/N=C(\C)Nc2ccc(OCC)cc2)cc1` is lower in logIC50: 1 for the first, 0.23 for the second.

`CCCCCCCC1(c2ccccc2)OC(=O)NC1=O` (stereo not drawn) and `CCCCCC1(c2ccccc2)NC(=O)NC1=O` (stereo not drawn) are within 0.2 log units of each other in logIC50: 1.48 for the first, 1.59 for the second.

`COC(=O)C1=C(C)NC(C)=C(C(=O)OCC(C)C)C1c1ccccc1[N+](=O)[O-]` (stereo not drawn) and `CCOC(=O)C1=C(C)NC(C)=C(C(=O)OC)C1c1cccc([N+](=O)[O-])c1` (stereo not drawn) are within 0.2 log units of each other in logIC50: 1.41 for the first, 1.56 for the second.

`CCCCCCCC(O)(C(N)=O)c1ccccc1` (stereo not drawn) and `CCCCCCCCCC(O)(C(N)=O)c1ccccc1` (stereo not drawn) are within 0.2 log units of each other in logIC50: 0.95 for the first, 0.81 for the second.

`CCC(OCCCc1ccccc1)(C(=O)CCCCc1ccccc1)c1ccccc1` (stereo not drawn) and `CCCCCCCCCC1(c2ccccc2)NC(=O)N(Cc2ccccc2)C1=O` (stereo not drawn) are within 0.2 log units of each other in logIC50: 0.63 for the first, 0.71 for the second.

First: COC(=O)[C@H]1[C@@H](OC(=O)c2ccccc2)C[C@@H]2CC[C@H]1N2C
Second: CCN1C(=O)NC(=O)C1(C)c1ccccc1 (stereo not drawn)
The logIC50 of the first is lower: 1.69 for the first, 2.4 for the second.

Compared with `CCCCC1(c2ccccc2)NC(=O)N(C)C1=O` (stereo not drawn), `CCCC1(c2ccccc2)NC(=O)NC1=O` (stereo not drawn) is lower in logIC50: 2.45 for the first, 2.21 for the second.

First: O=C1NC(=O)C(c2ccccc2)(c2ccccc2)N1
Second: CCCCCC1(c2ccccc2)NC(=O)N(Cc2ccccc2)C1=O (stereo not drawn)
The logIC50 of the first is higher: 1.6 for the first, 0.84 for the second.

`CCOC(=O)C1=C(C)NC(C)=C(C(=O)OC)C1c1cccc(Cl)c1Cl` (stereo not drawn) and `CCCNC(C)C(=O)Nc1ccccc1C` (stereo not drawn) are within 0.2 log units of each other in logIC50: 1.57 for the first, 1.73 for the second.

Compared with `CCC1(c2ccccc2)NC(=O)N(CN2CCN(C(c3ccccc3)c3ccccc3)CC2)C1=O` (stereo not drawn), `CC(C)COCC(CN(Cc1ccccc1)c1ccccc1)N1CCCC1` (stereo not drawn) is lower in logIC50: 0.52 for the first, -0.08 for the second.

`O=C1NC(=O)C2(CCCCCc3ccccc32)N1` (stereo not drawn) and `O=C1NC(=O)C2(CCCCc3ccccc32)N1` (stereo not drawn) are the same in logIC50: 2.4 for the first, 2.4 for the second.

Compared with `COc1cc2nc(N3CCN(C(=O)c4ccco4)CC3)nc(N)c2cc1OC`, `O=C1NC(=O)C2(CCCc3ccccc32)N1` (stereo not drawn) is higher in logIC50: 1.33 for the first, 2.93 for the second.

Reference: ChEMBL document CHEMBL3098127, “A highly predictive 3D-QSAR model for binding to the voltage-gated sodium channel: design of potent new ligands” (Bioorg Med Chem, 2014)
